Measurements reported in patent US7601737B2, “Isotopically substituted proton pump inhibitors” (priority 2005, dated 2009).

Experiments:
[1] = biological target: T1, CYP2C19 (Homo sapiens, UniProt P33261); assay: Metabolic clearance in recombinant human cytochrome P450 CYP2C19; format: in vitro ADME; conditions: recombinant P450 0.5 nmol/mL, disappearance of parent compound; lower limit of assay resolution 17.6 μl/min/nmol P450
T1 construct: purchased Cypex, Dundee, UK
Protocol: Incubations were carried out in triplicate.

[2] = biological target: CYP3A4 (Homo sapiens, UniProt P08684); assay: Metabolic clearance in recombinant human cytochrome P450 CYP3A4; conditions: recombinant P450 1 nmol/mL, disappearance of parent compound; lower limit of assay resolution 17.6 μl/min/nmol P450
Protocol: In order to evaluate the properties of the compounds according to the invention the compounds' intrinsic clearances in recombinant human cytochrome P450 (CYP) isoenzymes CYP1A2, CYP2C8, CYP2C19, CYP2D6, CYP3A4, and CYP3A5 were determined.
Incubations were carried out in triplicate. […] The intrinsic clearance was determined based on the rate of disappearance of parent compound. Pantoprazole, omeprazole and the deuterated analogues were determined by HPLC-UV. The lower limit of assay resolution based on experimental variability was 17.6 μl/min/nmol P450.

[3] = in vitro; conditions: human, hepatocytes
Text: (§1) 5-hydroxy-omeprazole was quantified using LC-MS/MS.

[4] = tested on: human cryopreserved hepatocytes; assay: in vitro; conditions: human, hepatocytes
Text: as §1

[5] = Metabolisation in liver microsomes (monkey); format: in vitro ADME; conditions: 10 μM, 90 minutes incubation
Protocol: (§2) Pantoprazole or examples 1 or 2 (10 μM each) were incubated with liver microsomes (source: all from GenTest except Mini Pig from TEBU),incubation in 1 mg/ml protein, 100 mM Tris-HCl, pH 7.4, 1 mM NADPH2). Reaction was terminated after 90 minutes by liquid nitrogen, the parent compound was detected by HPLC (10 mM KH2PO4, pH 7.4, acetonitril gradient 20-44%).

[6] = Metabolisation in liver microsomes (guinea pig); format: in vitro ADME; conditions: Guinee pig liver microsomes, 10 μM, 90 minutes incubation
Protocol: as §2

[7] = Metabolisation in liver microsomes (rat); format: in vitro ADME; conditions: 10 μM, 90 minutes incubation
Protocol: as §2

[8] = Metabolisation in liver microsomes (dog); format: in vitro ADME; conditions: 10 μM, 90 minutes incubation
Protocol: as §2

[9] = tested on: human cryopreserved hepatocytes; conditions: human, 60 min
Protocol: Following the evaluation of the metabolic clearance of the compounds according to the invention via P450 enzymes, the formation kinetics of the main metabolite identified in humans, i.e. M2 (5-(difluoromethoxy)-2-[[(3-methoxy-4-sulfate-2-pyridyl)-methyl]sulfinyl]-1H-benzimidazole) was determined. Because the generation of M2 involves the oxidation of the 4-methoxy-pyridyl group by CYP2C19 and subsequent conjugation with 3′-phosphoadenosine-5′-phosphosulfate (PAPS) by an unidentified sulphotransferase, human cryopreserved hepatocytes were used since both phase I and phase II enzymes are functional in this in vitro system.
M2 formation rate under these conditions was linear up to 60 min. The M2 formation rate was determined at nine different compound concentrations (0, 0.5, 1.0, 2.5, 5.0, 10.0, 25.0, 50.0 and 100 μMol/L) incubated in duplicate for 60 min at 37° C. M2 was quantified using LC-MS/MS. M2 isolated from human urine was used as an external standard. The concentration to reach the half-maximal formation rate (KM-value) and the maximal formation rate (Vmax) were obtained by non-linear regression analysis using the Michaelis-Menten equation. The intrinsic clearance (Clint) was obtained dividing Vmax over KM.

[10] = Metabolisation in liver microsomes (human); format: in vitro ADME; conditions: 10 μM, 90 minutes incubation
Protocol: as §2

[11] = Metabolisation in liver microsomes (mini pig); format: in vitro ADME; conditions: 10 μM, 90 minutes incubation
Protocol: as §2

[12] = Metabolisation in liver microsomes (mouse); format: in vitro ADME; conditions: 10 μM, 90 minutes incubation
Protocol: as §2

CYP3A4, sequence (P08684 whole entry): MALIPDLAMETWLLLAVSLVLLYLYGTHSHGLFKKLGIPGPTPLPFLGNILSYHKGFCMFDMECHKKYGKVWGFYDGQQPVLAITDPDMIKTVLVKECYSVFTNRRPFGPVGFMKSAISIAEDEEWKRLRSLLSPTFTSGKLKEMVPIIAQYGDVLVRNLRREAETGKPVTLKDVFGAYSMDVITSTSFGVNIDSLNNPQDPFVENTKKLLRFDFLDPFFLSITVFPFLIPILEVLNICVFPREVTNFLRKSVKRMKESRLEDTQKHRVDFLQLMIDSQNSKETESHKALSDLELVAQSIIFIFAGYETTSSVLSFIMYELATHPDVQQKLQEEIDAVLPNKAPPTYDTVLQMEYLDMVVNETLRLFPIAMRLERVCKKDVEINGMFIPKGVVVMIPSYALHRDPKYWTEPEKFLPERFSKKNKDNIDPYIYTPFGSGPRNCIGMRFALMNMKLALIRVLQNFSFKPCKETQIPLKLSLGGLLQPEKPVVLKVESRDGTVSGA
T1 sequence (P33261 whole entry): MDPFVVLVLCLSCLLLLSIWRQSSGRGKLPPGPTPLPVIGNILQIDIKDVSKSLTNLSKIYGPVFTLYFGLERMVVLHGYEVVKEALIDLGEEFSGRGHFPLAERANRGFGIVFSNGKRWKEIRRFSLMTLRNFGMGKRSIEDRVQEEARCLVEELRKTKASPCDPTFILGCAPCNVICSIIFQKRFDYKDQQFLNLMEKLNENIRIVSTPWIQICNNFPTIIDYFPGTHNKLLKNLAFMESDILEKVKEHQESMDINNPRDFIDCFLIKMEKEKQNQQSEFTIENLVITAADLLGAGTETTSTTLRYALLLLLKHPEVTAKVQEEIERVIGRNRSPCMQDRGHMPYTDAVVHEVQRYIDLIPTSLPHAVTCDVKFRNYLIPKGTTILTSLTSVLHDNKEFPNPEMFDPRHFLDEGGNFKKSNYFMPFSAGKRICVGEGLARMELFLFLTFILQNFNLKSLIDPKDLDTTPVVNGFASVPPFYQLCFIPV

| hepatocyte CLint [3] [µL/min/1e6 cells] | % Σ Clint rac. Omeprazole [4] [%] | SMILES | Contribution of CYP2C19 to the oxidative metabolism [1] | Contribution of CYP3A4 to the oxidative metabolism [2] | Percent of compound metabolized [5] [%] | Percent of compound metabolized [6] [%] | Percent of compound metabolized [7] [%] | Percent of compound metabolized [8] [%] | Substrate concentrations at which formation of M2 appeared to be inhibited [9] | Percent of compound metabolized [10] [%] | Percent of compound metabolized [11] [%] | Percent of compound metabolized [12] [%] |
| --- | --- | --- | --- | --- | --- | --- | --- | --- | --- | --- | --- | --- |
| 2 | 100 | COc1ccc2[nH]c([S+]([O-])Cc3ncc(C)c(OC)c3C)nc2c1 (racemic) [rac. Omeprazole, 5-methoxy-2-[(4-methoxy-3,5-dimethyl-2-pyridinyl)methylsulphinyl]-1H-benzimidazole, reference compound] | contribute to the oxidative metabolism | contribute to the oxidative metabolism | – | – | – | – | – | – | – | – |
| – | – | COc1ccnc(C[S+]([O-])c2nc3ccc(OC(F)F)cc3[nH]2)c1OC (centres unmarked) [H-Pantoprazole, 5-difluoromethoxy-2-[(3,4-dimethoxy-2-pyridinyl)methylsulphinyl]-1H-benzimidazole, reference compound] | contribute to the oxidative metabolism | contribute to the oxidative metabolism | 73 | 78 | 61 | 20 | above 100 μM | 28 | 26 | 62 |
